Here are results for 34 compounds from patent US10961238B2, “Modulators of hedgehog (Hh) signaling pathway” (E-THERAPEUTICS PLC, priority 2016, dated 2021).

The first assay deals with C3H10T1/2 cells. In words: C3H assay: differentiation of C3H10T1/2 cells by mSHH, measurement of alkaline phosphatase. In kind it is cell-based, mouse. The settings on record: C3H10T1/2 cells stimulated with mSHH for 72 hours; alkaline phosphatase activity; read-out: IC50 Ranges.
Consider `O=C(OCc1cccc([N+](=O)[O-])c1)N1CC(S(=O)(=O)N2CCC(c3c[nH]c4ncccc34)CC2)C1` [Compound 213, (3-nitrophenyl) methyl 3-[4-(1H-pyrrolo[2,3-b]pyridin-3-yl)piperidin-1-yl]sulfonylaze-tidine-1-carboxylate], for which the IC50 was less than 10 nM.

Still in this assay, the particulars now being: Mus musculus, C3H 10T1/2; C3H10T1/2 cells stimulated with mSHH for 72 hours; alkaline phosphatase activity; read-out: IC50 Ranges.
As to `CN1CCC[C@H]1C(=O)N1CC(S(=O)(=O)N2CCC(c3ccccc3)CC2)C1` [Compound 315, [(2S)-1-methyl-pyrrolidin-2-yl]-[3-(4-phenylpiperidin-1-yl)sulfonylaze-tidin-1-yl]methanone], the IC50 was 1000 to 10000 nM. As to `CC(C)N(C(=O)N1CC(S(=O)(=O)N2CCC(c3c[nH]c4ncccc34)CC2)C1)C(C)C` [Compound 173, N,N-Diisopropyl-3-[[4-(1H-pyrrolo[2,3-b]pyridin-3-yl)-1-piperidyl]sulfonyl]azetidine-1-carboxamide], the IC50 was 100 to 1000 nM. On to `CC(C)(C)OC(=O)N1CC(S(=O)(=O)N2CC=C(c3cnc4occc4c3)CC2)C1` [Compound 234, tert-butyl 3-[(4-furo[2,3-b]pyridin-5-yl-3,6-dihydro-2H-pyridin-1-yl)sulfonyl]aze tidine-1-carboxylate], for which the IC50 was in the range of 100 to 1000 nM. On the same count and under the same terms, the result for `Cc1noc(C)c1NC(=O)N1CC(S(=O)(=O)N2CCC(c3c[nH]c4nccnc34)CC2)C1` [Compound 43, N-(3,5-dimethyl-1,2-oxazol-4-yl)-3-[4-(5H-pyrrolo [2,3-b]pyrazin-7-yl)piperidin-1-yl]sulfonylaze-tidine-1-carboxamide] reads 10 to 100 nM; that for `N#Cc1ccc(NC(=O)N2CC(S(=O)(=O)N3CCC(c4c[nH]c5ncccc45)CC3)C2)cc1` [Compound 335, N-(4-cyanophenyl)-3-[4-(1H-pyrrolo [2,3-b]pyridin-3-yl)piperidin-1-yl]sulfonylaze-tidine-1-carboxamide], 10 to 100 nM; that for `CC(C)CC(=O)N1CC(S(=O)(=O)N2CCC(c3coc4cccnc34)CC2)C1` [Compound 408, 1-[3-(4-furo[3,2-b]pyridin-3-ylpiperidin-1-yl)sulfonylazetidin-1-yl]-3-methylbutan-1-one], 100 to 1000 nM. For `COc1ccc(C2CCN(S(=O)(=O)C3CN(C(=O)OC(C)(C)C)C3)CC2)nc1` [Compound 47, tert-butyl 3-[4-(5-methoxypyridin-2-yl)piperidin-1-yl]sulfonylaze-tidine-1-carboxylate], the IC50 fell in the range of 1000 to 10000 nM. For `COC1CCC(OC(=O)N2CC(S(=O)(=O)N3CCC(c4ccncc4)CC3)C2)CC1` (stereo not shown) [Compound 28, (4-methoxycyclo-hexyl) 3-(4-pyridin-4-9-ylpiperidin-1-yl)sulfonylaze-tidine-1-carboxylate], the IC50 was in the range of 100 to 1000 nM.

Take `O=C(OC1CCNCC1)N1CC(S(=O)(=O)N2CCC(c3c[nH]c4ncccc34)CC2)C1` [Compound 210, piperidin-4-yl 3-[4-(1H-pyrrolo[2,3-b]pyridin-3-yl)piperidin-1-yl]sulfonylaze-tidine-1-carboxylate]: the half-inhibitory concentration (IC50) was 100 to 1000 nM. For the compound `O=S(=O)(C1CN(c2ncccc2F)C1)N1CCC(c2c[nH]c3ncccc23)CC1` [Compound 253, 3-[1-[1-(3-fluoropyridin-2-yl)azetidin-3-yl]sulfonylpiper-idin-4-yl]-1H-pyrrolo[2,3-b]pyridine], the half-inhibitory concentration (IC50) is 10 to 100 nM.

Turning to `CC(C)(C)OC(=O)N1CC(S(=O)(=O)N2CCC(c3c[nH]c4cccnc34)CC2)C1` [Compound 49, tert-butyl 3-[4-(1H-pyrrolo[3,2-b]pyridin-3-yl)piperidin-1-yl]sulfonylaze-tidine-1-carboxylate], the IC50 is 10 to 100 nM. Take `O=S(=O)(C1CN(Cc2cccs2)C1)N1CCC(c2c[nH]c3ncccc23)CC1` [Compound 68, 3-[1-[1-(thiophen-2-ylmethyl)azetidin-3-yl]sulfonylpiper-idin-4-yl]-1H-pyrrolo[2,3-b]pyridine]: the IC50 is 100 to 1000 nM. Same read-out and setting: the result for `Cc1noc(C)c1NC(=O)N1CC(S(=O)(=O)N2CCC(c3ccc(Cl)cc3)CC2)C1` [Compound 322, 3-[4-(4-chlorophenyl)piperidin-1-yl]sulfonyl-N-(3,5-dimethyl-1,2-oxazol-4-yl)azetidine-1-carboxamide] reads 10 to 100 nM; that for `Cc1noc(C)c1CNC(=O)N1CC(S(=O)(=O)N2CCC(c3c[nH]c4ncccc34)CC2)C1` [Compound 55, N-[(3,5-dimethyl-1,2-oxazol-4-yl)methyl]-3-[4-(1H-pyrrolo[2,3-b]pyridin-3-yl)piperidin-1-yl]sulfonylaze-tidine-1-carboxamide], 10 to 100 nM; that for `O=S(=O)(C1CN(c2ncccn2)C1)N1CCC(c2c[nH]c3ncccc23)CC1` [Compound 155, 3-[1-(1-pyrimidin-2-ylazetidin-3-yl)sulfonylpiper-idin-4-yl]-1H-pyrrolo[2,3-b]pyridine], 100 to 1000 nM. In the case of `COc1ccc(OC(=O)N2CC(S(=O)(=O)N3CCC(c4c[nH]c5ncccc45)CC3)C2)cc1` [Compound 219, (4-methoxyphenyl) 3-[4-(1H-pyrrolo[2,3-b]pyridin-3-yl)piperidin-1-yl]sulfonylaze-tidine-1-carboxylate], the IC50 was 10 to 100 nM.

For `CC(C)(C)OC(=O)N1CC(S(=O)(=O)N2CCC(c3c[nH]c4nccc(F)c34)CC2)C1` [Compound 221, tert-butyl 3-[4-(4-fluoro-1H-pyrrolo[2,3-b]pyridin-3-yl)piperidin-1-yl]sulfonylaze-tidine-1-carboxylate], the half-maximal inhibitory concentration (IC50) was in the range of 100 to 1000 nM.

As for `O=C(OC1CCCCC1)N1CC(S(=O)(=O)N2CCC(c3cn(C(=O)OC4CCCCC4)c4cccnc34)CC2)C1` [Compound 40, cyclohexyl 3-[1-(1-cyclohexyloxycarbonylazetidin-3-yl)sulfonylpiper-idin-4-yl]pyrrolo [3,2-b]pyridine-1-carboxylate], the concentration for half-maximal inhibition (IC50) lay within 1000 to 10000 nM. Still for that read-out and setting: the result for `CS(=O)(=O)N1CC(S(=O)(=O)N2CCC(c3c[nH]c4ncccc34)CC2)C1` [Compound 91, 3-[1-(1-Methylsulfonylazetidin-3-yl)sulfonyl-4-piperidyl]-1H-pyrrolo[2,3-b]pyridine] reads 100 to 1000 nM. Still for that read-out and setting: the result for `Cc1noc(C)c1CN1CC(S(=O)(=O)N2CCC(c3c[nH]c4ncccc34)CC2)C1` [Compound 61, 3,5-dimethyl-4-[[3-[4-(1H-pyrrolo [2,3-b]pyridin-3-yl)piperidin-1-yl]sulfonylaze-tidin-1-yl]methyl]-1,2-oxazole] reads 1000 to 10000 nM.

As for `O=C(OCC1CCCO1)N1CC(S(=O)(=O)N2CCC(c3ccncc3)CC2)C1` (stereo not shown) [Compound 30, (oxolan-2-yl)methyl 3-(4-pyridin-4-ylpiperidin-1-yl)sulfonylaze-tidine-1-carboxylate], the IC50 was in the range of 1000 to 10000 nM. `Cc1ccc(F)cc1NC(=O)N1CC(S(=O)(=O)N2CCC(c3ccncc3)CC2)C1` [Compound 286, N-(5-fluoro-2-methylphenyl)-3-(4-pyridin-4-ylpiperidin-1-yl)sulfonylaze-tidine-1-carboxamide]: the IC50 was 1000 to 10000 nM.

Consider `Cc1noc(C)c1NC(=O)N1CC(S(=O)(=O)N2CCC(c3cn(C)c4nccnc34)CC2)C1` [Compound 42, N-(3,5-dimethyl-1,2-oxazol-4-yl)-3-[4-(5-methylpyrrolo [2,3-b]pyrazin-7-yl)piperidin-1-yl]sulfonylaze-tidine-1-carboxamide], for which the IC50 is 1000 to 10000 nM.

On to `CCOC(=O)N1CCC(S(=O)(=O)N2CCC(c3ccncc3)CC2)CC1` [Compound 103, ethyl 4-(4-pyridin-4-ylpiperidin-1-yl)sulfonylpiper-idine-1-carboxylate], for which the half-maximal inhibitory concentration (IC50) fell in the range of 1000 to 10000 nM. With `CC(C)(C)CC(C)(C)NC(=O)N1CC(S(=O)(=O)N2CCC(c3ccncc3)CC2)C1` [Compound 33, 3-(4-pyridin-4-ylpiperidin-1-yl)sulfonyl-N-(2,4,4-trimethylpentan-2-yl)azetidine-1-carboxamide], the IC50 is 10 to 100 nM. Regarding `O=C(OCC1CCCCC1)N1CC(S(=O)(=O)N2CCC(c3ccncc3)CC2)C1` [Compound 266, cyclohexylmethyl 3-(4-pyridin-4-ylpiperidin-1-yl)sulfonylaze-tidine-1-carboxylate], the 50% inhibitory concentration (IC50) fell in the range of 100 to 1000 nM.

For the compound `Cc1ccccc1NC(=O)N1CC(S(=O)(=O)N2CCC(c3coc4cccnc34)CC2)C1` [Compound 369, 3-(4-furo[3,2-b]pyridin-3-ylpiperidin-1-yl)sulfonyl-N-(2-methylphenyl) azetidine-1-carboxamide], the IC50 is 100 to 1000 nM.

In the case of `CC(C)(C)OC(=O)N[C@H]1C[C@@H](S(=O)(=O)N2CCC(c3c[nH]c4ncccc34)CC2)C1` [Compound 358, cis-tert-butyl-N-[3-[[4-(1H-pyrrolo[2,3-b]pyridin-3-yl)-1-piperidyl]sulfonyl]cyclobutyl]carbamate], the IC50 fell in the range of 10 to 100 nM. On to `Cc1ccccc1C1CCN(S(=O)(=O)C2CN(C(=O)OC(C)(C)C)C2)CC1` [Compound 409, tert-butyl 3-[4-(2-methylphenyl)piperidin-1-yl]sulfonylaze-tidine-1-carboxylate], for which the half-inhibitory concentration (IC50) lay in the range of 1000 to 10000 nM. Turning to `COc1cnc2[nH]cc(C3CCN(S(=O)(=O)C4CN(C(=O)OC(C)(C)C)C4)CC3)c2c1` [Compound 123, tert-butyl 3-[4-(5-methoxy-1H-pyrrolo[2,3-b]pyridin-3-yl)piperidin-1-yl]sulfonylaze-tidine-1-carboxylate], the half-maximal inhibitory concentration (IC50) lay in the range of 100 to 1000 nM.

As to `O=C(NC1(C(F)(F)F)CC1)N1CC(S(=O)(=O)N2CCC(c3ccc(Cl)cc3)CC2)C1` [Compound 341, 3-[4-(4-chlorophenyl)piperidin-1-yl]sulfonyl-N-[1-(trifluoromethyl)cyclopropyl] azetidine-1-carboxamide], the concentration for half-maximal inhibition (IC50) fell in the range of 10 to 100 nM. For the compound `Cc1c(F)cccc1NC(=O)N1CC(S(=O)(=O)N2CCC(c3coc4cccnc34)CC2)C1` [Compound 360, N-(3-fluoro-2-methylphenyl)-3-(4-furo[3,2-b]pyridin-3-ylpiperidin-1-yl)sulfonylaze-tidine-1-carboxamide], the 50% inhibitory concentration (IC50) was in the range of 10 to 100 nM. Still for that read-out and setting: the result for `Cc1noc(C)c1NC(=O)N1CC(S(=O)(=O)N2CCC(c3coc4cccnc34)CC2)C1` [Compound 135, N-(3,5-dimethyl-1,2-oxazol-4-yl)-3-(4-furo[3,2-b]pyridin-3-ylpiperidin-1-yl)sulfonylaze-tidine-carboxamide] reads less than 10 nM.

In general, IC50 refers to the midpoint of a concentration-inhibition curve.
